Data on 27 compounds can be found in patent publication US9908886B2 (Agency for Science, Technology and Research, priority 2012, dated 2018).

Assay [1] concerns eIF4E Ser209 phosphorylation in Hela cells. The experiment in a line: MNK cell-based assay, AlphaScreen SureFire. The note with it: 2 hours. The source says:
It has been reported that Ser209 of eIF4E is solely phosphorylated by the MNK enzymes. The ability of compounds to inhibit this process in Hela cells was investigated using the AlphaScreen SureFire® assay platform from Perkin Elmer (Waltham, Mass.). eIF4E phosphorylated on Ser209 is recognized by two antibodies, the first which is fused to a streptavidin coated donor bead binds to an epitope away from Ser209, the second which is fused to a protein A conjugated acceptor bead binds to phosphorylated Ser209. The phosphorylation of eIF4E on Ser209 brings the two antibodies into close proximity and when excited by a laser a singlet oxygen is released by the donor bead which excites the acceptor bead resulting in the emission of light. This enables the monitoring of eIF4E Ser209 phosphorylation and its inhibition in a cellular context.
Hela cells were seeded into microtitre plates (30,000 cells per well) in 100 μl of culture medium and incubated at 37° C. for 24 hours. The media was then removed by aspiration and the cells resuspended in 50 μl of serum free medium containing the test compound and incubated at 37° C. for 2 hours. The culture medium was again removed by aspiration and the cells resuspended in lysis buffer (provided in Perkin Elmer SureFire® Assay Kit). After agitation at 350 rpm for 20 minutes at 22° C., 4 μl was transferred to a 384 well OptiPlate™ (Perkin Elmer, Waltham, Mass.). To each well was added 5 μl of acceptor mix; the plate was sealed and agitated gently at 22° C. for 2 hours. Then, in subdued light, 2 μl of donor mix was added to each well, the plate was sealed, wrapped in aluminum foil and agitated gently at 22° C. for 2 hours. Emission was measured using the EnVision® plate reader (Perkin Elmer, Waltham, Mass.).
Inhibition constants (IC50) were determined by plotting AlphaScreen signal versus log compound concentration and fitting with a non-linear regression algorithm using GraphPad Prism (GraphPad Software Inc.).

Assay [2] relates to eIF4E phosphorylation in K562 cells. The experiment in a line: Western blot of eIF4E phosphorylation in BC-CML cell line. Type of assay: cell-based. The note with it: various concentrations, 24 h. As for the experimental part:
K562 cell line was obtained from the ATCC, and grown in RPMI supplemented with 10% FCS, L-glutamine, and penicillin/streptomycin.
Exponentially growing cells were plated at 2×10^5 cells/ml, and whole cell lysate processed for western blot analysis using antibodies recognizing eIF4E, phospho-eIF4E (Cell signaling Technology),

The target in assay [3] is MNK1 (Homo sapiens, UniProt Q9BUB5). The experiment in a line: In vitro MNK kinase assay (Caliper LabChip mobility shift). The note with it: enzymatic, 1.2 mM ATP; read-out: IC50 Mnk1. Type of assay: biochemical.
Assay [4] concerns the target MNK2 (Homo sapiens (Human), UniProt Q9HBH9). Described as above. Type of assay: biochemical. The note with it: enzymatic, 250 μM ATP; read-out: IC50 Mnk2.

MNK2, sequence (Q9HBH9 84-388): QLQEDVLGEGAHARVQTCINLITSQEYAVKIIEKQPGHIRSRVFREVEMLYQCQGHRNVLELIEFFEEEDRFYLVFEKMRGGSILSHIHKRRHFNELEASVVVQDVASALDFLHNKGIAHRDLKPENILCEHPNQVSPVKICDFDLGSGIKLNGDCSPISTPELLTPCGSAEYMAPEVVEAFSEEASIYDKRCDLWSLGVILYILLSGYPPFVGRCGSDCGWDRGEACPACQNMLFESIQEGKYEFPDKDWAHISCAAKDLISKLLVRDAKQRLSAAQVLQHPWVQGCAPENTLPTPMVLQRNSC

Turning to “N-(5-(3-(4-cyanophenyl)imidazo[1,2-b]pyridazin-6-yl)-2-morpholine-4-carbonyl)phenyl)acetamide [Example 80]”, the IC50 in assay [1] is under 1000 nM.
Still for that read-out and setting: in the case of `N#Cc1ccc(-c2cnc3ccc(-c4ccc(C(=O)N5CCN(c6ccncc6)CC5)cc4)cn23)cc1` [Example 125, 4-(6-(4-(4-(pyridin-4-1)piperazine-1-carbonyl)phenyl)imidazo[1,2-a]pyridin-3-yl)benzonitrile] it was under 1000 nM.
In the case of `CN1CCN(C(=O)c2ccc(-c3ccc4ncc(-c5ccc(C#N)cc5)n4n3)cc2)CC1` [Example 54], in assay [1] (Homo sapiens), the IC50 is under 1000 nM.
`CN1CCN(C(=O)c2ccc(-c3cn4c(-c5ccc(C#N)cc5)cnc4cn3)cc2)CC1` [Example 6, 4-(6-(4-(4-methylpinerazine-1-carbonyl)phenyl)imidazo[1,2-a]pyrazin-3-yl)benzonitrile]: the eIF4E phosphorylation result in assay [2] is on record as “prevent eIF4E phosphorylation”.
Consider “N-(1-(4-(3-(4-chlorophenyl)imidazo[1,2-a]pyrazin-6-yl)benzoyl)piperidin-4-yl)-2,2,2-acetamide [Example 49]”, for which the IC50 in assay [1] is under 1000 nM.
Regarding `CN1CCN(C(=O)c2ccc(-c3ccc4ncc(-c5ccc(C#N)cc5)n4c3)c(O)c2)CC1` [Example 144, 4-(6-(2-hydroxy-4-(4-methylpiperazine-1-carbonyl)phenyl)imidazo[1,2-a]pyridin-3-yl)benzonitrile], the 50% inhibitory concentration (IC50) was under 100 nM in assay [3], under 1000 nM in assay [1] (Homo sapiens) and under 100 nM in assay [4].
As for `O=C1Cc2cc(-c3cnc4ccc(-c5ccc(C(=O)N6CCC(N7CCOCC7)CC6)cc5)nn34)ccc2N1` [Example 94, 5-(6-(4-(4-morpholinopiperidine-1-carbonyl)phenyl)imidazo[1,2-b]pyridazin-3-yl)indolin-2-one], the IC50 in assay [3] and in assay [4] was under 100 nM throughout.
For `N#Cc1ccc(-c2cnc3ccc(-c4ccc(C(=O)N5CCNC(=O)C5)cc4)nn23)cc1` [Example 68, 4-(6-(4-(3-oxopiperazine-1-carbonyl)phenyl)imidazo[1,2-b]pyridazin-3-yl)benzonitrile], the 50% inhibitory concentration (IC50) in assay [3] and in assay [4] was under 100 nM each time.
On to `CCN1CCN(C(=O)c2ccc(-c3ccc4ncc(-c5ccc(C#N)cc5)n4c3)cc2)CC1` [Example 98, 4-(6-(4-(4-ethylpiperazine-1-carbonyl)phenyl)imidazo[1,2-a]pyridin-3-yl)benzonitrile], for which the half-maximal inhibitory concentration (IC50) in assay [3] and in assay [4] was under 100 nM throughout.
For the compound `CC(=O)NC1(C)CCN(C(=O)c2ccc(-c3ccc4ncc(-c5ccc(C#N)cc5)n4c3)cc2)CC1` [Example 99, N-(1-(4-(3-(4-cyanophenyl)imidazo[1,2-a]pyridin-6-yl)benzoyl)-4-methylpiperidin-4-yl)acetamide], the IC50 in assay [3] and in assay [4] was under 100 nM throughout.
In the case of `N#Cc1ccc(-c2cnc3ccc(-c4ccc(C(=O)N5CCC6(CCCCN6)CC5)cc4)nn23)cc1` [Example 71, 4-(6-(4-(1,9-diazaspiro[5.5]undecane-9-carbonyl)phenyl)imidazo[1,2-b]pyridazin-3-yl)benzonitrile], the IC50 in assay [3] and in assay [4] was under 100 nM throughout.
Turning to `CC(=O)N1CCCCC12CCN(C(=O)c1ccc(-c3ccc4ncc(-c5ccc(C#N)cc5)n4c3)cc1)CC2` [Example 118, 4-(6-(4-(1-acetyl-1,9-diazaspiro[5.5]undecane-9-carbonyl)phenyl)imidazo[1,2-a]pyridin-3-yl)benzonitrile], the IC50 in assay [3] and in assay [4] was under 100 nM in each case.
On to `N#Cc1ccc(-c2cnc3cnc(-c4ccc(C(=O)N5CCC(N)CC5)c(Cl)c4)cn23)cc1` [Example 31, 4-(6-(4-(4-aminopiperidine-1-carbonyl)-3-chlorophenyl)imidazo[1,2-a]pyrazin-3-yl)benzonitrile], for which the half-maximal inhibitory concentration (IC50) in assay [3] and in assay [4] was under 1000 nM in each case.
Take `CC(=O)Nc1cc(-c2ccc3ncc(-c4ccc(C#N)cc4)n3n2)ccc1C(=O)N1CCC(N(C)C)CC1` [Example 81, N-(5-(3-(4-cyanophenyl)imidazo[1,2-b]pyridazin-6-yl)-2-(4-(dimethylamino)piperidine-1-carbonyl)phenyl)acetamide]: the IC50 in assay [3] and in assay [4] was under 100 nM in each case.
`CN1CCN(C(=O)c2ccc(-c3ccc4ncc(-c5ccc(C#N)cc5)n4n3)cc2Cl)CC1` [Example 72, 4-(6-(3-chloro-4-(4-methylpiperazine-1-carbonyl)phenyl)imidazo[1,2-b]pyridazin-3-yl)benzonitrile]: the concentration for half-maximal inhibition (IC50) in assay [3] and in assay [4] was under 100 nM in each case.
`COC1(C)CCN(C(=O)c2ccc(-c3ccc4ncc(-c5ccc(C#N)cc5)n4c3)cc2)CC1` [Example 172, 4-(6-(4-(4-methoxy-4-methylpiperidine-1-carbonyl)phenyl)imidazo[1,2-a]pyridin-3-yl)benzonitrile]: the concentration for half-maximal inhibition (IC50) in assay [3] and in assay [4] was under 100 nM each time.
For the compound `CN1CCN(C2(C)CCN(C(=O)c3ccc(-c4ccc5ncc(-c6ccc(C#N)cc6)n5c4)cc3)CC2)CC1` [Example 164, 4-(6-(4-(4-methyl-4-(4-methylpiperazin-1-yl)piperidine-1-carbonyl)phenyl)imidazo[1,2-a]pyridin-3-0)benzonitrile], the concentration for half-maximal inhibition (IC50) in assay [3] and in assay [4] was under 100 nM each time.
Take `CN1CCN(C2CCN(C(=O)c3ccc(-c4ccc5ncc(-c6ccc(C#N)cc6)n5n4)cc3)CC2)CC1` [Example 70, 4-(6-(4-(4-(4-methylpiperazin-1-yl)piperidine-1-carbonyl)phenyl)imidazo[1,2-b]pyridazin-3-yl)benzonitrile]: the IC50 in assay [3] and in assay [4] was under 100 nM each time.
For the compound `CC(=O)Nc1cc(-c2ccc3ncc(-c4ccc(C#N)cc4)n3c2)ccc1C(=O)N1CCNCC1` [Example 170, N-(5-(3-(4-cyanophenyl)imidazo[1,2-a]pyridin-6-yl)-2-(piperazine-1-carbonyl)phenyl)acetamide], the IC50 in assay [3] and in assay [4] was under 100 nM throughout.
With `CCN1CCN(C(=O)c2ccc(-c3cn4c(-c5ccc(Cl)cc5)cnc4cn3)cc2)CC1` [Example 45, (4-(3-(4-chlorophenyl)imidazo[1,2-a]pyrazin-6-yl)phenyl)(4-ethylpiperazin-1-yl)methanone], the concentration for half-maximal inhibition (IC50) in assay [3] and in assay [4] was under 1000 nM throughout.
Regarding `N#Cc1ccc(-c2cnc3ccc(-c4ccc(C(=O)NCC(=O)N5CCOCC5)cc4)cn23)cc1` [Example 115, 4-(3-(4-cyanophenyl)imidazo[1,2-a]pyridin-6-yl)-N-(2-morpholino-2-oxoethyl)benzamide], the IC50 in assay [3] and in assay [4] was under 1000 nM each time.
With `N#Cc1ccc(-c2cnc3ccc(-c4ccc(C(=O)N5CCNCC5)cc4)cn23)cc1` [Example 165, 4-(6-(4-(piperazine-1-carbonyl)phenyl)imidazo[1,2-a]pyridin-3-yl)benzonitrile], the half-inhibitory concentration (IC50) in assay [3] and in assay [4] was under 100 nM each time.
On to `CN(C)C1CCN(C(=O)c2ccc(-c3cn4c(-c5ccc(C#N)cc5)cnc4cn3)cc2)CC1` [Example 21, 4-(6-(4-(4-(dimethylamino)piperidine-1-carbonyl)phenyl)imidazo[1,2-a]pyrazin-3-yl)benzonitrile], for which the IC50 in assay [3] and in assay [4] was under 1000 nM in each case.
Turning to `N#Cc1ccc(-c2cnc3ccc(-c4ccc(C(=O)N5CCC(N)CC5)cc4)nn23)cc1` [Example 56, 4-(6-(4-(4-aminopiperidine-1-carbonyl)phenyl)imidazo[1,2-b]pyridazin-3-yl)benzonitrile], the 50% inhibitory concentration (IC50) in assay [3] and in assay [4] was under 100 nM each time.
With `N#Cc1ccc(-c2cnc3ccc(-c4ccc(C(=O)N5CCN(Cc6ccc(C(N)=O)cc6)CC5)cc4)cn23)cc1` [Example 129, 4-((4-(4-(3-(4-cyanophenyl)imidazo[1,2-a]pyridin-6-yl)benzoyl)piperazin-1-yl)methyl)benzamide], the half-inhibitory concentration (IC50) was under 1000 nM in assay [3] and under 100 nM in assay [4].
The corresponding values for `CNC1CCN(C(=O)c2ccc(-c3cn4c(-c5ccc(C#N)cc5)cnc4cn3)cc2)CC1` [Example 9, 4-(6-(4-(4-(methylamino)piperidine-1-carbonyl)phenyl)imidazo[1,2-a]pyrazin-3-yl)benzonitrile] are under 1000 nM and under 1000 nM.
`CN1CCN(C(=O)c2ccc(-c3ccc4ncc(-c5ccc(C#N)cc5)n4c3)cc2O)CC1` [Example 143, 4-(6-(3-hydroxy-4-(4-methylpiperazine-1-carbonyl)phenyl)imidazo[1,2-a]pyridin-3-yl)benzonitrile]: the concentration for half-maximal inhibition (IC50) is under 100 nM in assay [3], under 1000 nM in assay [1] (Homo sapiens) and under 100 nM in assay [4].
